Test system: human myeloma cell line MM.1S
Assay: SILAC acetylated-lysine peptide profiling, HDAC inhibitor vs DMSO (light/heavy ratio)
Type: cell-based
Description: An embodiment of the invention comprises utilizing the SILAC method in order to quantitate changes in protein expression between two or more populations of cells. The SILAC method is a technique based on mass spectrometry that detects differences in protein abundance among samples using non-radioactive isotopic labeling. The SILAC method is known in the art, and described in detail in Ong et al., “Stable Isotope Labeling by Amino Acids in Cell Culture, SILAC, as a Simple and Accurate Approach to Expression Proteomics”, Molecular & Cellular Proteomics, vol. 1, pp. 376-386 (2002), which is incorporated herein by reference in its entirety.
Briefly, the SILAC method involves growing two populations of cells in cell culture. The first population of cells is grown in growth media containing normal amino acids (“normal media”). The second population of cells is grown in media lacking a standard essential amino acid (such as lysine), but is then supplemented with a non-radioactive, isotopically labeled form of that essential amino acid (such as lysine labeled with ^13C atoms, rather than normal ^12C atoms), which is called “heavy media”. When the two populations of cells are each growing in the medium, they incorporate the amino acids into all of their proteins. The growth of cells maintained in the heavy media is no different from that in normal media. All peptides containing the heavy amino acids are heavier than their normal counterparts. The cells from each of the two populations of cells are lysed. The lysates from each of the two cell populations are then combined. The combined cell lysates are then analyzed by mass spectrometry. Pairs of chemically identical peptides of different stable isotope composition can be differentiated in a mass spectrometer due to their difference in mass. The ratio of peak intensities in the mass spectrum for such peptide pairs reflects the abundance ratio for the two proteins.
This example describes SILAC studies that were performed to compare the effects of three different HDAC inhibitors (Compound A, Compound B, and tubastatin A) to a control on a human multiple myeloma cell line. The HDAC inhibitors were also compared amongst themselves to determine differences in their effects.
A human myeloma cell line MM.1S was grown using either ^12C (light) or ^13C (heavy) lysine containing culture medium. The “heavy” cells were treated with DMSO as the control, and the “light” cells were treated with a single HDAC inhibitor at 37° C. for 6 hours. The heavy and light cells were lysed, and the lysates were mixed in 1:1 ratio and digested with the protease trypsin. The acetylated lysine containing peptides (due to the action of the HDAC inhibitor) in the digested peptide pool were captured by a non-specific anti-acetylated lysine antibody cocktail (the antibodies identify both light and heavy acetylated peptides), and subjected to mass spectrometry analysis in order to identify thousands of individual peptides.
Thousands of peptides were identified in pairs (^12C and ^13C) due to their known mass differences. The amino acid sequence and quantitative ratio (Light/Heavy) of a given peptide in two differentially treated cell lysates were then determined and annotated with their possible protein (gene) sources.
As stated above, three HDAC inhibitors (Compound A, Compound B, and Tubastatin A) were used. Thus, the SILAC method was performed three times, with a different HDAC inhibitor compared to a control each time. Accordingly, there are three pairs of quantitative data in the table below, i.e., Compound A:DMSO, Compound B:DMSO, and Tubastatin A:DMSO. A cut-off of 1.30 fold of change (increase or decrease) was then used to determine “changed” or “+” in the table, and any peptides with a fold of change less than 1.3 fold were determined to be “unchanged” or “0” in the table. Those peptides that were not identified were marked as “NA” in the table. […]

## CN1CCc2c(c3ccccc3n2Cc2ccc(C(=O)NO)cc2)C1 [Tub A]
10 kDa heat shock protein mitochondrial [70], gene HSPE1, drug:DMSO
  light to heavy ratio (L/H ratio), log 2 scale, acetylated peptide VGDK(ac)VLLPEYGGTK (SEQ ID NO: 773): 0.00
39S ribosomal protein L20 mitochondrial [26], MRPL20, drug:DMSO
  light to heavy ratio (L/H ratio) of acetylated peptide IQEVLK(ac)HAR (SEQ ID NO: 264): 0.38 log 2
40S ribosomal protein S3a [85], SNORD73A, RPS3A, drug:DMSO
  light to heavy ratio (L/H ratio) of acetylated peptide FK(ac)LITEDVQGK (SEQ ID NO: 287): −0.66 log 2
40S ribosomal protein S10 [31], RPS10, drug:DMSO
  light to heavy ratio (L/H ratio) of acetylated peptide KDVHMPK(ac)HPELADK (SEQ ID NO: 353): 0.00 log 2
40S ribosomal protein S17 [49], gene RPS17, RPS17L, inhibitor:DMSO
  light to heavy ratio (L/H ratio) of acetylated peptide NK(ac)IAGYVTHLMK (SEQ ID NO: 559): 0.00 log 2
40S ribosomal protein S23 [54], RPS23, drug:DMSO
  light to heavy ratio (L/H ratio) of acetylated peptide GIVLEK(ac)VGVEAK (SEQ ID NO: 320): −0.55 log 2
60S ribosomal protein L3 [362], gene SNORD43, RPL3, drug:DMSO
  light to heavy ratio (L/H ratio), log 2 scale, acetylated peptide ALEK(ac)IDLK (SEQ ID NO: 813): 0.00
60S ribosomal protein L6 [211], RPL6, drug:DMSO
  light to heavy ratio (L/H ratio) of acetylated peptide IPK(ac)HLTDAYFK (SEQ ID NO: 259): −0.63 log 2
60S ribosomal protein L10-like [208], gene RPL10L, inhibitor:DMSO
  light to heavy ratio (L/H ratio) of acetylated peptide GPLDK(ac)WR (SEQ ID NO: 622): 0.00 log 2
60S ribosomal protein L10 [78], gene SNORA70, RPL10, drug:DMSO
  light to heavy ratio (L/H ratio), log 2 scale, acetylated peptide YMVK(ac)SCGK (SEQ ID NO: 811): 0.00
60S ribosomal protein L13 [174], gene RPL13, inhibitor:DMSO
  light to heavy ratio (L/H ratio) of acetylated peptide VITEEEK(ac)NFK (SEQ ID NO: 522): 0.00 log 2
60S ribosomal protein L13a [25], gene SNORD32A, RPL13A, SNORD33, SNORD34, inhibitor:DMSO
  light to heavy ratio (L/H ratio) of acetylated peptide LAAIVAK(ac)QVLLGR (SEQ ID NO: 505): 0.00 log 2
60S ribosomal protein L13a [134], gene SNORD32A, RPL13A, SNORD33, SNORD34, inhibitor:DMSO
  light to heavy ratio (L/H ratio) of acetylated peptide K(ac)FAYLGR (SEQ ID NO: 614): 0.00 log 2
60S ribosomal protein L13a [148], gene SNORD32A, RPL13A, SNORD33, SNORD34, drug:DMSO
  light to heavy ratio (L/H ratio), log 2 scale, acetylated peptide LAHEVGWK(ac)[…] (SEQ ID NO: 812): 0.00
60S ribosomal protein L15 [153], gene RPL15, inhibitor:DMSO
  light to heavy ratio (L/H ratio) of acetylated peptide RNPDTQWITK(ac)PVHK (SEQ ID NO: 581): 0.00 log 2
60S ribosomal protein L27 [93], gene RPL27, drug:DMSO
  light to heavy ratio (L/H ratio), log 2 scale, acetylated peptide YSVDIPLDK(ac)TVVNK (SEQ ID NO: 807): 0.00
60S ribosomal protein L27 [98], gene RPL27, drug:DMSO
  light to heavy ratio (L/H ratio), log 2 scale, acetylated peptide TVVNK(ac)DVFR (SEQ ID NO: 766): 0.00
60S ribosomal protein L28 [19], gene RPL28, inhibitor:DMSO
  light to heavy ratio (L/H ratio) of acetylated peptide NCSSFLIK(ac)R (SEQ ID NO: 558): 0.00 log 2
60S ribosomal protein L35a [8], gene RPL35A, inhibitor:DMSO
  light to heavy ratio (L/H ratio) of acetylated peptide LWSK(ac)AIFAGYK (SEQ ID NO: 538): 0.00 log 2
60S ribosomal protein L35a [15], RPL35A, drug:DMSO
  light to heavy ratio (L/H ratio) of acetylated peptide AIFAGYK(ac)R (SEQ ID NO: 300): 0.44 log 2
78 kDa glucose-regulated protein [268], HSPA5, drug:DMSO
  light to heavy ratio (L/H ratio) of acetylated peptide VMEHFIK(ac)LYK (SEQ ID NO: 276): −0.66 log 2
78 kDa glucose-regulated protein [326], HSPA5, drug:DMSO
  light to heavy ratio (L/H ratio) of acetylated peptide AK(ac)FEELNMDLFR (SEQ ID NO: 266): −0.52 log 2
(ac)AVPPTYADLGK(ac)SAR (SEQ ID NO: 464), Voltage-dependent anion-selective channel protein 1 [12], VDAC1
  L/H ratio of acetylated peptide: 0.00 log 2
(ac)SIGVPIK(ac)VLHEAEGHIVTCETNTGEVYR (SEQ ID NO: 224), Small nuclear ribonucleoprotein Sm D3 [8], SNRPD3
  light to heavy ratio (L/H ratio) of acetylated peptide, log 2 scale: 0.40
(ac)SSNECFK(ac)CGR (SEQ ID NO: 379), Isoform 1 of Cellular nucleic acid-binding protein [8], CNBP
  L/H ratio of acetylated peptide: 0.00 log 2
(ac)SVFGK(ac)LFGAGGGK (SEQ ID NO: 143), Charged multivesicular body protein 4b [6], CHMP4B
  light to heavy ratio (L/H ratio) of acetylated peptide, log 2 scale: −0.39
ACADVL [428], log 2 scale, drug vs DMSO
  L/H ratio of acetylated peptide IHNFGLIQEK(ac)LAR (SEQ ID NO: 19): −0.60
ACOX1 [504], log 2 scale, drug vs DMSO
  L/H ratio of acetylated peptide NLQK(ac)EVIHR (SEQ ID NO: 125): 0.54
ACTN1 [398], log 2 scale, drug vs DMSO
  L/H ratio of acetylated peptide LDHLAEK(ac)FR (SEQ ID NO: 20): −0.51
ADAR [757], log 2 scale, drug vs DMSO
  L/H ratio of acetylated peptide LVDQSGPPHEPK(ac)FVYQAK (SEQ ID NO: 126): −0.41
ADINTK(ac)WAATR (SEQ ID NO: 202), Ribosomal protein L14 variant [85], RPL14
  light to heavy ratio (L/H ratio) of acetylated peptide, log 2 scale: −0.50
ADK(ac)DYHFK (SEQ ID NO: 191), Isoform 2 of Nucleophosmin [27], NPM1
  light to heavy ratio (L/H ratio) of acetylated peptide, log 2 scale: −0.60
ADP-ribosylation factor-like protein 6-interacting protein 1 [96], ARL6IP1, drug:DMSO
  light to heavy ratio (L/H ratio) of acetylated peptide IFGSNK(ac)WTTEQQQR (SEQ ID NO: 306): 0.45 log 2
ADP-ribosylation factor-like protein 11 [31], gene ARL11, inhibitor:DMSO
  light to heavy ratio (L/H ratio) of acetylated peptide TTLLYK(ac)LK (SEQ ID NO: 624): 0.00 log 2
ADP/ATP translocase 1 [166], SLC25A4, drug:DMSO
  light to heavy ratio (L/H ratio) of acetylated peptide IFK(ac)SDGLR (SEQ ID NO: 280): 0.48 log 2
ADP/ATP translocase 3 [166], gene SLC25A6, inhibitor:DMSO
  light to heavy ratio (L/H ratio) of acetylated peptide ITK(ac)SDGIR (SEQ ID NO: 587): 0.00 log 2
AFG3L2 [543], log 2 scale, drug vs DMSO
  L/H ratio of acetylated peptide HLSDSINQK(ac)HFEQAIER: −0.39
AFYK(ac)SFSK (SEQ ID NO: 170), Endoplasmin [360], HSP90B1
  light to heavy ratio (L/H ratio) of acetylated peptide, log 2 scale: −1.00
AGVNTVTTLVENK(ac)K (SEQ ID NO: 206), 60S ribosomal protein L7a [150], RPL7A, SNORD24
  light to heavy ratio (L/H ratio) of acetylated peptide, log 2 scale: −0.42
AGYNVK(ac)QLFR (SEQ ID NO: 199), Isoform 1 of Ras-related protein Rab-6A [164], RAB6A
  light to heavy ratio (L/H ratio) of acetylated peptide, log 2 scale: 0.45
AHPVFYQGTYSQALNDAK(ac)R (SEQ ID NO: 153), FAS-associated factor 2 [167], FAF2
  light to heavy ratio (L/H ratio) of acetylated peptide, log 2 scale: −0.48
ANP32B [101], log 2 scale, drug vs DMSO
  L/H ratio of acetylated peptide LK(ac)DISTLEPLKK (SEQ ID NO: 21): −0.56
ANXA6 [63], log 2 scale, drug vs DMSO
  L/H ratio of acetylated peptide QRQEVCQSYK(ac)SLYGK (SEQ ID NO: 22): 0.68
ANXA11 [478], log 2 scale, drug vs DMSO
  L/H ratio of acetylated peptide LGTDESK(ac)FNAVLCSR (SEQ ID NO: 7): −0.44
